Results reported in PubChem BioAssay (NCI).
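Cells were grown in 96-well plates and exposed to each compound for 48 hours at five concentrations; endpoints were interpolated linearly between bracketing concentrations, or set to the highest concentration if not reached. The concentration for 50% growth inhibition is given as GI50. Definition used: TGI = concentration required for complete inhibition of growth.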

Legend:
Assay in all cases: NCI-60 cell line screen, 48 h
K-562 leukemia = system: K-562 leukemia
SF-268 CNS = system: SF-268 CNS
SN12C renal = system: SN12C renal
HT29 colon = system: HT29 colon
A498 renal = system: A498 renal
SF-539 CNS = system: SF-539 CNS
OVCAR-4 ovarian = system: OVCAR-4 ovarian
786-0 renal = system: 786-0 renal
OVCAR-5 ovarian = system: OVCAR-5 ovarian
SNB-75 CNS = system: SNB-75 CNS
M14 melanoma = system: M14 melanoma
DU-145 prostate = system: DU-145 prostate
PC-3 prostate = system: PC-3 prostate
OVCAR-3 ovarian = system: OVCAR-3 ovarian
NCI-H522 lung = system: NCI-H522 lung
SF-295 CNS = system: SF-295 CNS
MOLT-4 leukemia = system: MOLT-4 leukemia
A549 NSCLC = system: A549 NSCLC
HL-60(TB) leukemia = system: HL-60(TB) leukemia
IGROV1 ovarian = system: IGROV1 ovarian
MDA-MB-435 = system: MDA-MB-435
NCI/ADR-RES ovarian = system: NCI/ADR-RES ovarian
UACC-257 melanoma = system: UACC-257 melanoma
SNB-19 CNS = system: SNB-19 CNS
HOP-62 NSCLC = system: HOP-62 NSCLC
OVCAR-8 ovarian = system: OVCAR-8 ovarian
MDA-MB-231 breast = system: MDA-MB-231 breast
BT-549 breast = system: BT-549 breast
UO-31 renal = system: UO-31 renal
SR leukemia = system: SR leukemia
CAKI-1 renal = system: CAKI-1 renal
KM12 colon = system: KM12 colon
NCI-H460 lung = system: NCI-H460 lung
U251 CNS = system: U251 CNS
SK-MEL-28 melanoma = system: SK-MEL-28 melanoma
SW-620 colon = system: SW-620 colon
RPMI-8226 leukemia = system: RPMI-8226 leukemia
NCI-H23 lung = system: NCI-H23 lung
SK-OV-3 ovarian = system: SK-OV-3 ovarian
MCF7 breast = system: MCF7 breast
HCT-116 colon = system: HCT-116 colon
COLO 205 colon = system: COLO 205 colon
SK-MEL-5 melanoma = system: SK-MEL-5 melanoma
SK-MEL-2 melanoma = system: SK-MEL-2 melanoma
HCT-15 colon = system: HCT-15 colon
CCRF-CEM leukemia = system: CCRF-CEM leukemia
LOX IMVI melanoma = system: LOX IMVI melanoma
ACHN renal = system: ACHN renal

SMILES: Cc1nc2cc(Nc3nc(Nc4ccc(F)cc4)nc(N4CCN(C)CC4)n3)ccc2n1Cc1ccccc1
- GI50 (K-562 leukemia): 1340 nM
- TGI (K-562 leukemia): 5290 nM
- GI50 (SF-268 CNS): 1860 nM
- TGI (SF-268 CNS): 4080 nM
- GI50 (SN12C renal): 1670 nM
- TGI (SN12C renal): 3340 nM
- GI50 (HT29 colon): 1660 nM
- TGI (HT29 colon): 3280 nM
- GI50 (A498 renal): 1560 nM
- TGI (A498 renal): 3190 nM
- GI50 (SF-539 CNS): 1730 nM
- TGI (SF-539 CNS): 3130 nM
- GI50 (OVCAR-4 ovarian): 2200 nM
- TGI (OVCAR-4 ovarian): 5870 nM
- GI50 (786-0 renal): 1540 nM
- TGI (786-0 renal): 3320 nM
- GI50 (OVCAR-5 ovarian): 2000 nM
- TGI (OVCAR-5 ovarian): 4700 nM
- GI50 (SNB-75 CNS): 1400 nM
- TGI (SNB-75 CNS): 2790 nM
- GI50 (M14 melanoma): 1970 nM
- TGI (M14 melanoma): 3690 nM
- GI50 (DU-145 prostate): 1750 nM
- TGI (DU-145 prostate): 3370 nM
- GI50 (PC-3 prostate): 2040 nM
- TGI (PC-3 prostate): 5400 nM
- GI50 (OVCAR-3 ovarian): 1840 nM
- TGI (OVCAR-3 ovarian): 3510 nM
- GI50 (NCI-H522 lung): 1600 nM
- TGI (NCI-H522 lung): 3210 nM
- GI50 (SF-295 CNS): 1820 nM
- TGI (SF-295 CNS): 3600 nM
- GI50 (MOLT-4 leukemia): 2010 nM
- TGI (MOLT-4 leukemia): 5070 nM
- GI50 (A549 NSCLC): 1510 nM
- TGI (A549 NSCLC): 3150 nM
- GI50 (HL-60(TB) leukemia): 1340 nM
- TGI (HL-60(TB) leukemia): 3360 nM
- GI50 (IGROV1 ovarian): 2450 nM
- TGI (IGROV1 ovarian): 5830 nM
- GI50 (MDA-MB-435): 1870 nM
- TGI (MDA-MB-435): 3560 nM
- GI50 (NCI/ADR-RES ovarian): 2710 nM
- TGI (NCI/ADR-RES ovarian): 7600 nM
- GI50 (UACC-257 melanoma): 1800 nM
- TGI (UACC-257 melanoma): 3300 nM
- GI50 (SNB-19 CNS): 2470 nM
- TGI (SNB-19 CNS): 7420 nM
- GI50 (HOP-62 NSCLC): 1850 nM
- TGI (HOP-62 NSCLC): 3650 nM
- GI50 (OVCAR-8 ovarian): 2020 nM
- TGI (OVCAR-8 ovarian): 5490 nM
- GI50 (MDA-MB-231 breast): 1690 nM
- TGI (MDA-MB-231 breast): 3360 nM
- GI50 (BT-549 breast): 1730 nM
- TGI (BT-549 breast): 3440 nM
- GI50 (UO-31 renal): 1790 nM
- TGI (UO-31 renal): 3820 nM
- GI50 (SR leukemia): 266 nM
- TGI (SR leukemia): 806 nM
- GI50 (CAKI-1 renal): 2190 nM
- TGI (CAKI-1 renal): 5400 nM
- GI50 (KM12 colon): 1730 nM
- TGI (KM12 colon): 3250 nM
- GI50 (NCI-H460 lung): 1900 nM
- TGI (NCI-H460 lung): 3830 nM
- GI50 (U251 CNS): 1350 nM
- TGI (U251 CNS): 2640 nM
- GI50 (SK-MEL-28 melanoma): 1730 nM
- TGI (SK-MEL-28 melanoma): 3160 nM
- GI50 (SW-620 colon): 1790 nM
- TGI (SW-620 colon): 3950 nM
- GI50 (RPMI-8226 leukemia): 1750 nM
- TGI (RPMI-8226 leukemia): 4280 nM
- GI50 (NCI-H23 lung): 2000 nM
- TGI (NCI-H23 lung): 4500 nM
- GI50 (SK-OV-3 ovarian): 1900 nM
- TGI (SK-OV-3 ovarian): 3780 nM
- GI50 (MCF7 breast): 1360 nM
- TGI (MCF7 breast): 3380 nM
- GI50 (HCT-116 colon): 1330 nM
- TGI (HCT-116 colon): 3060 nM
- GI50 (COLO 205 colon): 1940 nM
- TGI (COLO 205 colon): 3620 nM
- GI50 (SK-MEL-5 melanoma): 1540 nM
- TGI (SK-MEL-5 melanoma): 2890 nM
- GI50 (SK-MEL-2 melanoma): 1970 nM
- TGI (SK-MEL-2 melanoma): 3580 nM
- GI50 (HCT-15 colon): 1550 nM
- TGI (HCT-15 colon): 3480 nM
- GI50 (CCRF-CEM leukemia): 1930 nM
- TGI (CCRF-CEM leukemia): 5470 nM
- GI50 (LOX IMVI melanoma): 1790 nM
- TGI (LOX IMVI melanoma): 3410 nM
- GI50 (ACHN renal): 1870 nM
- TGI (ACHN renal): 3830 nM
